Assay results reported in US5928931A, “Isolation, purification and cloning of retinol dehydratase” (Cornell Research Foundation, Inc., priority 1997, dated 1999).
pKd: −log10 of the molar value. “Also recorded” adds a separate entry of the source. Like-named read-outs stand apart in the source and are kept apart here.

Tests used:
NIH 3T3 cells = test: Activation of resting serum-starved NIH 3T3 cells ([3H]thymidine incorporation); format: cell-based; details: for time from the start of activation to entry of the S phase: 5% fetal calf serum; for activation of growth arrested cells (thymidine incorporation over 24 hours): cells deprived of serum for 3 or 4 days; for concentrations that activate resting 3T3 cells (dose-response): four day serum-starved cells, FIG. 6B; for entry of treated cells into the S phase: data not shown
Description: FIGS. 6A and 6B show the activation of resting NIH 3T3 cells. In FIG. 6(a), one to four day serum-starved cells activated by serum, retinol, 14-HRR, and the peptide growth factors epidermal growth factor ("EGF") and platelet derived growth factor ("PDGF") are shown. […] NIH 3T3 cells were grown to confluence in Dulbecco's minimal essential medium ("DMEM") containing 10% fetal calf serum in 96-well microliter plates. All media were supplemented with 2 mM glutamine and 100 U/ml of penicillin/streptomycin. Cells were washed once with phosphate-buffered saline solution and incubated for one to four days in 200 μl/well of DMEM media/0.1% fetal calf serum ("starvation media"). On the indicated day, starvation media was replaced with 200 μl/well of insulin, transferrin, linoleic acid, bovine serum albumin ("ITLB") media, with or without fetal calf serum, retinoids, or peptide growth factors at the indicated concentrations. ITLB media is RPMI media (Gibco BRL, Grand Island, N.Y.) containing […] bovine serum albumin (1.2 mg/ml), linoleic acid (10^-6 M), bovine insulin (5 μg/ml), and transferrin (5 μg/ml). [^3 H]thymidine (1.2 μCi per well) was added at the beginning of the experiment, and the thymidine incorporation was determined after 24 h. The data represent the mean of triplicate measurements and standard deviations ("SD") were ≤17%. Recombinant PDGF (B/B) and EGF were purchased from Sigma Chemical Company or Boehringer Mannheim Corporation. Anhydroretinol was synthesized by acid catalyzed dehydration of all-trans-retinol. Embree, J. Biol. Chem. 128:187-98 (1939) and Derguini, et al., Angew. Chem. Int. Ed. Engl. 33:1839-41 (1994), which are hereby incorporated by reference. All-trans-14-hydroxy-4,14-retro-retinol was synthesized as described. Derguini, et al., J. Biochem. 33:623-28 (1994), which is hereby incorporated by reference.
Cells starved for 4 days in DMEM/0.1% fetal calf serum were activated with 5% fetal calf serum, 2 μM retinol, or 2 μM 14-HRR, and the cumulative thymidine incorporation was determined at the indicated time points. Δcpm corresponds to the increase in [^3 H]thymidine incorporation in the two hour period before the time point shown. This method is described in FIG. 6. The data in FIG. 7 represents the mean of quadruplicate measurements and SDs were ≤15%.
Cells starved for 4 days in DMEM/0.1% fetal calf serum were activated in 100 μl/well ITLB medium. At the indicated time points, anhydroretinol was added in 100 μl ITLB medium. This method is described in FIG. 6. The data in FIG. 8 represents the mean of quadruplicate measurements and SDs were ≤20%.
Cells starved for 4 days in DMEM/0.1% fetal calf serum were activated with 5% fetal calf serum, 2 μM retinol, or 2 μM 14-HRR. At the time points, 10^-5 M anhydroretinol was added. The cumulative [^3 H]thymidine incorporation was determined after 24 hours. […] The method is described in FIG. 6. The data in FIG. 9 represents the mean of triplicate measurements and SDs were ≤20%.
Confluent NIH 3T3 cells were starved for 1 to 4 days in medium containing 0.1% serum. Then, these starved cells were treated with serum, PDGF, EGF, retinol, or 14-HRR. Activation was quantitated by measuring the [^3 H] thymidine incorporated into newly synthesized DNA during the subsequent 24 hours (FIG. 6A). After a single day of serum starvation, the cells were not yet arrested, and the control cells incorporated the same amount of thymidine as the treated cells. After 2 days of serum deprivation, untreated cells incorporated slightly less thymidine, while cells treated with serum, peptide growth factors and retinoids maintained the original level of thymidine incorporation. In contrast, cells deprived of serum for 3 or 4 days were fully growth arrested; untreated cells incorporated little or no thymidine. […] All subsequent activation experiments were conducted using 4 day starved NIH 3T3 cells.

retinol dehydratase [1] = molecular target: T1, retinol dehydratase (Spodoptera frugiperda, UniProt Q26490); test: Retinol dehydratase assay ([3H]-retinol to [3H]-AR, HPLC radiomatic detection); kinetic studies; format: biochemical
T1 sequence (Q26490 1-351): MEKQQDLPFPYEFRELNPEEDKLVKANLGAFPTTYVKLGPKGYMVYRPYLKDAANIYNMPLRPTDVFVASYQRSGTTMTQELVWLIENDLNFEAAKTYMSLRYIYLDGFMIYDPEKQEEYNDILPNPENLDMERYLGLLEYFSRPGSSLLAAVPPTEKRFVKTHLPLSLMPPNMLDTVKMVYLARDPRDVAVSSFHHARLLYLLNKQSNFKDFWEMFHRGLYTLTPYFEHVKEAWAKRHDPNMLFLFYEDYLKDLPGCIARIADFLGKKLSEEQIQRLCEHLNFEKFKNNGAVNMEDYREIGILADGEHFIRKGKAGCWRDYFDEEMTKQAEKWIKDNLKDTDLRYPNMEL
Description: 20-50 μl aliquots of supernatant/column fractions were incubated with 1 μCi of [^3 H]-retinol and 20 μl of high speed supernatant from sonicated Sf-9 cells in 200 μl assay buffer (20 mM Tris.Cl pH 7.5, 150 mM NaCl, I mM MgCI2) for 15-60 minutes at 24° C. […] Samples were delipidated and [^3 H]-AR production quantified by a liquid scintillation radiomatic detector in series with HPLC gradient elution (20 mM Tris pH 7.4/methanol/chloroform) from a C-18 Reverse Phase 201TP54 column (Vydac, Separations Group, Hesperia, Calif.) as described by McClean et al., Clin. Chem., 28:693-96 (1982) and Derguini et al., Angew. Che. Int. Ed. Engl., 33:1839-41 (1994), which are hereby incorporated by reference.
Kinetic studies were performed with native retinol dehydratase (0.1 μg/assay) and ^3 H-retinol in the presence of constant substrate carrier protein concentrations, either delipidated BSA or recombinant cellular retinol binding protein ("CRBP"). The initial rate of AR synthesis at different substrate concentrations was determined by radiomatic detection of ^3 H-AR after HPLC separation.
Carrier protein for retinol (delipidated bovine serum albumin or recombinant human CRBP) was added to reduce nonspecific binding and micelle formation.

B lymphocyte = details: Buck et al. 1993; cited from earlier work
resting T lymphocytes = details: Buck et al. 1993; cited from earlier work
[2] = test system: lymphocyte and HL-60 cell; details: Eppinger et al. 1993, Buck et al. 1993; cited from earlier work
Sf-21 cells = format: cell-based, Spodoptera frugiperda
Description: 10^7 Spodoplera frugiperda Sf-21 cells or Sf-9 cells were incubated with 1 μCi^3 H-retinol in Grace's insect cell media for 6 hours. Delipidated and radiolabelled retinoid metabolites were analyzed by radiomatic detection after separation by HPLC.
Che. Int. Ed. Engl., 33:1839-41 (1994), which is hereby incorporated by reference.

retinol dehydratase [3] = molecular target: T1, retinol dehydratase; test: Fluorimetric titration of recombinant retinol dehydratase with retinol (direct binding, no cofactor)
Description: Binding was monitored by following the fluorescence enhancement of retinol (excitation--330 nm; emission--480 nm, open circles). The fluorescence contribution of free retinol was determined by titration with retinol in the absence of protein (open squares), analyzed by linear regression analysis (dashed line) and subtracted from the titration data to give the corrected titration binding curve (closed circles). The data were fitted (solid line) using an equation derived from simple binding theory.
Retinol is an efficient fluorophore and its interactions with proteins are often accompanied by a marked increase in its fluorescence. […]
Recombinant retinol dehydratase (lμM) was titrated with retinol from a concentrated solution in ethanol (final ethanol concentration <2.0%). Binding was monitored by following the fluorescence enhancement of retinol (excitation--330 nm; emission--480 nm, open circles). The fluorescence contribution of free retinol was determined by titration with retinol in the absence of protein (FIG. 5B, open squares), analysed by linear regression analysis (FIG. 5B, dashed line) and subtracted from the titration data to give the corrected titration binding curve (FIG. 5B, closed circles). […]

BSA = BSA (Bos taurus, UniProt P02769); details: published value; read-out: BSA Kd for retinol; cited from earlier work
CRBP-1 = molecular target: T2, CRBP-1 (Rattus norvegicus, UniProt P02696); details: published value; read-out: CRBP Kd for retinol; cited from earlier work
T2 sequence (P02696 1-135): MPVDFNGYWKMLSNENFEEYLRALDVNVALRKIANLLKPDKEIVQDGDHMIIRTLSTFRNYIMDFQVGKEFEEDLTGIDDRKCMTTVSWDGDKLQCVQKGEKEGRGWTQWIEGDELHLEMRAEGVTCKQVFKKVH

[4] = 4 day starved cells, 2 μM retinol or 2 μM 14-HRR

Sequence of BSA (P02769 25-607): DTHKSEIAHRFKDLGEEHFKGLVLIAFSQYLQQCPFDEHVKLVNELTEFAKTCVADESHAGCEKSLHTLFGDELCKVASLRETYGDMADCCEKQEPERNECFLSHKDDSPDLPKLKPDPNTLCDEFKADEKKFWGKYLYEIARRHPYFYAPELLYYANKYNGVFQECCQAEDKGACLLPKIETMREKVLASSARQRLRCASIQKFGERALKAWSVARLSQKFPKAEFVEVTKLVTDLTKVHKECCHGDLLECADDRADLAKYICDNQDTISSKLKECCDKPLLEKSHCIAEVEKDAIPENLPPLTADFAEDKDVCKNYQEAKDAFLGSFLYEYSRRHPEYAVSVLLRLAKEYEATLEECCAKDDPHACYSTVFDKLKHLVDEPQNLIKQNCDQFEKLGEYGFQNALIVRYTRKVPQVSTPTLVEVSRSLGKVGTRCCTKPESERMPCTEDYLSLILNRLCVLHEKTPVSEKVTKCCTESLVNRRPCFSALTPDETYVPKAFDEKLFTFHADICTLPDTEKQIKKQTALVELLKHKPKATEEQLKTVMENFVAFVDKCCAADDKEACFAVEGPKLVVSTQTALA

CC1=CCCC(C)(C)C1=C/C=C(C)/C=C/C=C(\C)C(O)CO (stereo not shown) [14-HRR, 14-hydroxy-4,14-retro-retinol]
time from the start of activation to entry of the S phase (NIH 3T3 cells; [4]): 16 h | activation of growth arrested cells (thymidine incorporation over 24 hours) (NIH 3T3 cells): activated the cells at least as well as serum | concentrations that activate resting 3T3 cells (dose-response) (NIH 3T3 cells): submicromolar

Nc1ncnc2c1ncn2[C@@H]1O[C@H](COP(=O)(O)OS(=O)(=O)O)[C@@H](OP(=O)(O)O)[C@H]1O [PAPS, 3'-phosphoadenosine 5'-phosphosulfate]
restoration of retinol dehydratase activity (cofactor) (retinol dehydratase [1]; purified recombinant retinol dehydratase, [3H]-retinol assay): necessary and sufficient to restore activity

Nc1ncnc2c1ncn2[C@@H]1O[C@H](COP(=O)(O)OS(=O)(=O)O)[C@@H](O)[C@H]1O [adenosine 5'-phosphosulfate]
activity as cofactor in the [3H]-retinol assay (retinol dehydratase [1]; purified recombinant retinol dehydratase, concentration range tested 1-10 μM): not active

C=C/C(C)=C/C=C/C(C)=C/C=C1/C(C)=CCCC1(C)C [anhydroretinol]
reaction rate (product inhibition) (retinol dehydratase [1]; ratio of 50:1 for anhydroretinol to retinol): halved | inhibition of activation by retinol and 14-HRR (NIH 3T3 cells; 3T3 cells): competitively inhibits | time after activation within which added anhydroretinol prevents activation (NIH 3T3 cells; 10^-5 M anhydroretinol, activation by 5% fetal calf serum, 2 μM retinol or 2 μM 14-HRR): ≤ 90 min | inhibition of activation by serum (NIH 3T3 cells; 4 day starved cells, FIG. 8): blocks activation by serum in a dose-dependent manner; also recorded: competitively inhibits | block of activation when added late (NIH 3T3 cells; anhydroretinol added after 2 hours): unable to block activation | effect on B lymphocyte proliferation (B lymphocyte): blocks | effect on activation of resting T lymphocytes (resting T lymphocytes): blocks | effect on retinol and 14-HRR supported lymphocyte and HL-60 cell growth [2]: competitively inhibits

O=CCCCC=O [glutaraldehyde]
inhibition of cellular production of AR compared to controls (Sf-21 cells; 2% glutaraldehyde fixation): 90%

CCCCCCCCCCCCCC(=O)O[C@@H]1[C@@H](C)[C@@]2(O)[C@@H](C=C(CO)C[C@]3(O)C(=O)C(C)=C[C@@H]23)[C@@H]2C(C)(C)[C@]12OC(C)=O [phorbol ester]
entry of treated cells into the S phase (NIH 3T3 cells): did not enter the S phase | activation of resting cells (NIH 3T3 cells; ≤1 μM): unable to activate

CC1=C(/C=C/C(C)=C/C=C/C(C)=C/C(=O)O)C(C)(C)CCC1 [retinoic acid]
activation of resting cells (NIH 3T3 cells; ≤5 μM): unable to activate

CC1=C(/C=C/C(C)=C/C=C/C(C)=C/CO)C(C)(C)CCC1 [retinol]
Vmax (retinol dehydratase [1]; all assays, with carrier protein, n=5): 490±50 pmoles AR min^-1 enzyme | Vmax (retinol dehydratase [1]; native retinol dehydratase 0.1 μg/assay, 3H-retinol, representative experiment, non-linear regression): 530 pmol/mg/min | pKd (retinol dehydratase [3]; n=3, read-out: range of equilibrium dissociation constant (Kd)): 7.82 to 8.70 | pKd (retinol dehydratase [3]; recombinant enzyme 0.5-1 μM, no cofactor, to be considered an upper limit, read-out: equilibrium dissociation constant (Kd)): 8.05 | time from the start of activation to entry of the S phase (NIH 3T3 cells; [4]): 16 h | activation of growth arrested cells (thymidine incorporation over 24 hours) (NIH 3T3 cells): activated the cells at least as well as serum | concentrations that activate resting 3T3 cells (dose-response) (NIH 3T3 cells): submicromolar | pKd (BSA): 6.00 | pKd (CRBP-1): 7.92

[N-]=[N+]=[N-] [sodium azide]
inhibition of cellular production of AR compared to controls (Sf-21 cells; 0.1% sodium azide treatment): 96%

Insulin: bovine insulin, 5 μg/ml in ITLB medium
activation of resting 3T3 cells (NIH 3T3 cells; insulin 5 μg/ml in the defined medium, alone): did not activate

PDGF
activation of growth arrested cells (thymidine incorporation over 24 hours) (NIH 3T3 cells): had no effect | entry of treated cells into the S phase (NIH 3T3 cells): did not enter the S phase | activation of resting cells (NIH 3T3 cells; ≤1000 ng/ml): unable to activate
